Key:
Details in all cases: treatment: drug alone; 5 days
UO-31 [1] = experiment: minimum viability across doses, drug alone, relative to DMSO (fraction); higher = less growth inhibition
Description: (§1)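 Primary HTS: 8 RCC cell lines treated with 8 doses (up to 10 uM) of each library drug alone for 5 days; viability read by CellTiter-Glo and normalised to DMSO. GI50 was fitted with XLfit (4-parameter), AUC is the area under the dose-response curve, and minimum viability is the lowest fraction of DMSO viability across doses.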

A498 [2] = experiment: as above
Description: as §1

CAKI-1 [3] = experiment: as above
Description: as §1

TK-10 [4] = experiment: as above
Description: as §1

SN12C [5] = experiment: as above
Description: as §1

786-O [6] = experiment: as above
Description: as §1

ACHN [7] = experiment: as above
Description: as §1

769-P [8] = experiment: as above
Description: as §1

UO-31 [9] = experiment: AUC of dose-response viability curve, drug alone (arbitrary (AUC of normalised viability)); higher = less growth inhibition
Description: as §1

A498 [10] = experiment: as above
Description: as §1

CAKI-1 [11] = experiment: as above
Description: as §1

TK-10 [12] = experiment: as above
Description: as §1

SN12C [13] = experiment: as above
Description: as §1

786-O [14] = experiment: as above
Description: as §1

ACHN [15] = experiment: as above
Description: as §1

769-P [16] = experiment: as above
Description: as §1

UO-31 [17] = experiment: GI50, drug alone; higher = less potent
Description: as §1

A498 [18] = experiment: GI50, drug alone; higher = less potent
Description: as §1

CAKI-1 [19] = experiment: GI50, drug alone; higher = less potent
Description: as §1

TK-10 [20] = experiment: GI50, drug alone; higher = less potent
Description: as §1

SN12C [21] = experiment: GI50, drug alone; higher = less potent
Description: as §1

786-O [22] = experiment: GI50, drug alone; higher = less potent
Description: as §1

ACHN [23] = experiment: GI50, drug alone; higher = less potent
Description: as §1

769-P [24] = experiment: GI50, drug alone; higher = less potent
Description: as §1

| GI50, drug alone (786-O [22]) [nM] | GI50, drug alone (ACHN [23]) [nM] | SMILES | minimum viability across doses (UO-31 [1]) | minimum viability across doses (A498 [2]) | minimum viability across doses (CAKI-1 [3]) | minimum viability across doses (TK-10 [4]) | minimum viability across doses (SN12C [5]) | minimum viability across doses (786-O [6]) | minimum viability across doses (ACHN [7]) | minimum viability across doses (769-P [8]) | AUC of dose-response viability curve (UO-31 [9]) | AUC of dose-response viability curve (A498 [10]) | AUC of dose-response viability curve (CAKI-1 [11]) | AUC of dose-response viability curve (TK-10 [12]) | AUC of dose-response viability curve (SN12C [13]) | AUC of dose-response viability curve (786-O [14]) | AUC of dose-response viability curve (ACHN [15]) | AUC of dose-response viability curve (769-P [16]) | GI50, drug alone (UO-31 [17]) [nM] | GI50, drug alone (A498 [18]) [nM] | GI50, drug alone (CAKI-1 [19]) [nM] | GI50, drug alone (TK-10 [20]) [nM] | GI50, drug alone (SN12C [21]) [nM] | GI50, drug alone (769-P [24]) [nM] |
| --- | --- | --- | --- | --- | --- | --- | --- | --- | --- | --- | --- | --- | --- | --- | --- | --- | --- | --- | --- | --- | --- | --- | --- | --- |
| 589 | 1320 | Cn1cc(-c2ccc3ncc(Cc4ccc5ncccc5c4)n3n2)cn1 [NVP-BVU972] | 0.018 | 0.0174 | 0.0623 | 0.12 | 0.0229 | 0.00923 | 0.0166 | 0.0466 | 4.11 | 3.94 | 2.77 | 2.58 | 2.75 | 2.24 | 2.78 | 3.07 | 1400 | 2530 | 1170 | 1300 | 1400 | > 10000 |
| 52.8 | 962 | CNC(=O)c1ccccc1Nc1nc(Nc2ccc(N3CCOCC3)cc2OC)ncc1Cl [NVP-TAE226] | 0.398 | 0.703 | 0.0558 | 0.102 | 0.295 | 0.00915 | 0.102 | 0.29 | 3.21 | 4.76 | 2.64 | 2.12 | 2.95 | 1.15 | 2.43 | 2.93 | 8150 | > 10000 | 1360 | 551 | 5140 | 2760 |
| 28.3 | > 10000 | CN1C(=O)C(Cc2c[nH]c3ccccc23)NC1=S (stereo unspecified) [Necrostatin-1] | 1.01 | 0.888 | 0.916 | 0.729 | 0.868 | 0.334 | 0.79 | 0.968 | 4.83 | 4.28 | 3.5 | 2.91 | 3.29 | 2.03 | 2.99 | 3.6 | > 10000 | > 10000 | > 10000 | > 10000 | > 10000 | > 10000 |
| 756 | 77.1 | CCOc1cc2ncc(C#N)c(Nc3ccc(OCc4ccccn4)c(Cl)c3)c2cc1NC(=O)/C=C/CN(C)C [Neratinib (HKI-272)] | 0.697 | 0.894 | 0.161 | 0.251 | 0.315 | 0.345 | 0.117 | 0.0782 | 4.06 | 3.99 | 2.11 | 1.77 | 2.44 | 2.38 | 1.48 | 2.43 | > 10000 | > 10000 | 407 | 161 | 1350 | 1140 |
| > 10000 | > 10000 | Cc1cn(-c2cc(NC(=O)c3ccc(C)c(Nc4nccc(-c5cccnc5)n4)c3)cc(C(F)(F)F)c2)cn1 [Nilotinib (AMN-107)] | 0.654 | 0.788 | 0.763 | 0.56 | 0.877 | 0.827 | 0.797 | 0.93 | 4.08 | 4.05 | 3.76 | 2.96 | 3.37 | 3.8 | 3.32 | 3.46 | > 10000 | > 10000 | > 10000 | > 10000 | > 10000 | > 10000 |
| > 10000 | 5640 | COc1ccc(C2=NC(c3ccc(Cl)cc3)C(c3ccc(Cl)cc3)N2C(=O)N2CCNC(=O)C2)c(OC(C)C)c1 (stereo unspecified) [Nutlin-3] | 0.99 | 0.914 | 0.383 | 0.805 | 0.846 | 0.756 | 0.278 | 0.677 | 4.29 | 3.9 | 3.34 | 2.99 | 3.31 | 3.29 | 2.82 | 3.42 | > 10000 | > 10000 | 8040 | > 10000 | > 10000 | > 10000 |
| 1660 | 1910 | COc1cccc2cc(-c3nc([C@H]4CC[C@H](C(=O)O)CC4)n4ncnc(N)c34)[nH]c12 [OSI-027] | 0.00484 | 0.148 | 0.0475 | 0.191 | 0.168 | 0.185 | 0.105 | 0.408 | 3.1 | 3.75 | 2.58 | 2.64 | 2.77 | 2.49 | 2.85 | 3.12 | 2520 | 9270 | 1170 | 1930 | 2390 | 8490 |
| 101 | 827 | C#Cc1cccc(Nc2ncnc3cc(OCCOC)c(OCCO)cc23)c1.Cl [OSI-420 (Desmethyl Erlotinib)] | 0.906 | 0.92 | 0.159 | 0.416 | 0.6 | 0.443 | 0.101 | 0.36 | 3.38 | 3.79 | 2.79 | 2.29 | 2.95 | 2.49 | 2.38 | 2.69 | > 10000 | > 10000 | 3010 | 2420 | > 10000 | 3590 |
| 7470 | 5420 | O=C(Nc1ccc(OC(F)(F)F)cc1)c1sccc1NCc1ccnc2ccccc12 [OSI-930] | 0.173 | 0.722 | 0.264 | 0.572 | 0.158 | 0.372 | 0.175 | 0.871 | 3.46 | 3.58 | 3.63 | 3.23 | 3.5 | 2.81 | 3.25 | 3.39 | 1350 | > 10000 | 8110 | > 10000 | 8320 | > 10000 |

Reference: the supplement of paper PMC8149375
